Results taken from patent publication US11413302B2, “Use of carrimycin or active ingredients thereof and use thereof” (SHENYANG FUYANG PHARMACEUTICAL TECHNOLOGY CO., LTD., priority 2018, dated 2022).

Tests used:
rats induced by Aβ1-42 [1] = test: rat Morris water-maze experiment, Aβ1-42 AD model; format: in vivo, Sprague Dawley rats; details: 30 mg/kg
Description: (§3) The mice were randomly divided into 6 groups, a sham-operation control group, a model group, three groups were fed with 25, 50 and 100 mg/kg of carrimycin, and one group was fed with 30 mg/kg of the positive drug resveratrol.
(§4) Experimental process: Aβ1-42 was dissolved by using a hexafluoroisopropanol/sterile normal-saline solution to obtain the concentration of 2 μg/μL, incubated and aged at 4° C. for 24 h to form a AO oligomer, and reserved. […] 2.5 μL, (0.5 μL/min) was injected within 5 min into each side of the hippocampus, and the needle was retained for 5 min, to result in a rat dementia model.
On the next day after the model was established, the sham-operation control group and the model group were administered intragastrically by using the corresponding solvents, the other experimental groups were administered intragastrically by using 25, 50 and 100 mg/kg of carrimycin and 30 mg/kg of the positive drug resveratrol. On the 12th day after Aβ1-42 was injected into the hippocampus, the experiments of Y maze, new-object distinguishing and water maze were carried out in sequence. Continue to administer during the behavioral experiment 1 time per day till the behavioristics end.
The rat water-maze experiment: on the 16-20th day after the administration, the Morris water-maze experiment was performed on the groups of rats. The Morris water-maze experiment aims at investigating the influence by Carrimycin on the space studying memory disorder. The water-maze apparatus is composed of a black stainless-steel circular water pool with the diameter of 1.5 meters and the height of 50 centimeters and a circular metal platform with the diameter of 10 centimeters, and the platform can freely move. Before the experiment, the water pool was filled with water (water temperature 24±1° C.) to cause the water level to be above the platform by 1 centimeter. In the training phase, training is performed 1 time in the morning and afternoon per day for 6 days. […]

rats induced by Aβ1-42 [2] = test: rat Y-maze experiment, Aβ1-42 AD model; format: in vivo, Sprague Dawley rats; details: 30 mg/kg
Description: The rat Y-maze experiment: on the 12th day after the administration, the Y-maze experiment was performed on the groups of rats. […] In the experiment, the rats were placed into the tip of the arm A, and were permitted to freely enter and leave the three arms. The total time quantity of entering the arms and the order of entering the arms within 8 min of each of the rats were recorded. By using the continuous entering into the three different arms as one correct alternate reaction, the time quantity of the correct alternate reactions was recorded. The spontaneous alternate reaction rate is used to reflect the capacity of space working memory.

rats induced by Aβ1-42 [3] = test: rat new-object-distinguishing experiment, Aβ1-42 AD model; design: species or system Sprague Dawley rats; details: in vivo
Description: as §3, §4
On the next day after the model was established, the sham-operation control group and the model group were administered intragastrically by using the corresponding solvents, the other experimental groups were administered intragastrically by using 25, 50 and 100 mg/kg of carrimycin and 30 mg/kg of the positive drug resveratrol. […]
The rat new-object-distinguishing experiment: on the 14-15th day after the administration, the new-object-distinguishing experiment was performed on the groups of rats. […] The test was performed on the third day, in which each time one rat was placed into the open field to firstly freely explore for 3min, and was then taken out, 2 same objects (A1, A2) were placed into the center of the open field, the rat was placed into the open field, and the durations (tA1, tA2) during which the rat exploreed the two objects within 5 min were recorded. After 1 h, the object A2 was replaced with a new object B, the rat was placed into the open field again, and the durations (tA1, tB) during which the rat explored the two objects were recorded. After 24 h, the object B was replaced with an object C, the rat was placed into the open field again, and the durations (tA1, tC) during which the rat explored the two objects were recorded. […] The preferential index and the discrimination index to the new objects are calculated. […]

diabetes mouse [4] = test: fasting insulin (ELISA) and insulin resistance of alloxan diabetes mice; format: in vivo, Kunming mice; details: 200 mg/kg; 45 days; fasting blood sugar*fasting insulin/22.5
Description: (§1) The study on the effect of Carrimycin on reducing blood sugar comprises Kunming mice was selected, single intraperitoneal injection with 160 mg/kg of alloxan was subjected to Kunming mice to form model mice. The mice whose values of blood sugar are stable at the modeling level (10˜25mmol/L) were selected, divided randomly into a model control group, a positive control group (200 mg/kg of metformin) and an administration group (with Carrimycin as the drug, 25, 50 and 100 mg/kg). Simultaneously a normal control group was provided, and was given gastric normal saline.
After the model was made and gavage was given for 45 days, the mice were fasted for 16 h, and blood was collected from the fundus venous plexus. Before taking blood, the capillary was moistened with heparin, 0.5 ml of blood was collected from the fundus venous plexus, centrifuged at 3500 r/min for 10 min, and plasma was separated for testing. The supernatant was sucked, and the insulin was measured by using the ELISA method. […]
The measurement of the insulin resistance: after the concentrations of fasting blood sugar and insulin have been measured, the insulin resistance was calculated by using the formula: insulin resistance=fasting blood sugar*fasting insulin/22.5 (it is recently reported that when it is>2.6, it is determined that insulin resistance exists).

diabetes mouse [5] = test: fasting blood sugar of alloxan diabetes mice; format: in vivo, Kunming mice; details: 200 mg/kg
Description: as §1
(§2) After the model was made and gavage was given for 30 and 45 days, the mice were fasted for 16 hours, and the mice were weighed. After weighing, blood was collected at the tail tip, and the fasting blood sugar was measured by using a blood-sugar meter. After the value of fasting blood sugar was measured, the […] were administered by intragastric administration once. After 2 h, mice in each group were given a glucose solution by gavage at 2 g/kg, and blood was collected at the tip of the tail. The blood sugar values at 0, 0.5 and 2 h were measured after the administration of glucose (Bg0, Bg0.5 and Bg2), and the area (AUC) (reaction sugar tolerance) under the blood sugar curve was calculated by using the following formula: AUC=0.25*(Bg0+4*Bg0.5+3*Bg2); and […]

[6] = body weight of alloxan diabetes mice; format: in vivo, Kunming mice; details: 200 mg/kg, gavage
Description: as §1, §2

INS-1 cell = test: protection of INS-1 islet cell against alloxan damage (MTT); format: cell-based, Rat; details: 0.5 mM; 24 mmol/L alloxan damage, 24 h
Description: the INS-1 cell was the adherent cell, the INS-1 cell in the logarithmic growth phase was used, digested by using trypsin, beated by using a complete medium, and prepared into a single-cell suspension. The cell concentration was adjusted to be 1*10^5/ml, and the cell was inoculated into the 96-well culture plate with 100 μl per well, cultured in the incubator at 5% CO2 and 37° C. for 24 h. The cells were grouped according to the demands of the experiment, the cell of the administration groups were administered with 24 mmol/L of alloxan damage, simultaneously were administered with the drug to be tested Carrimycin with different concentrations (0.2, 0.4 and 0.8 mM), 4 complex wells for each of the concentrations were provided, and all groups were continued to be cultured at 37° C. for 24 h. Additionally a normal control group (no medication administered), a model group (merely administered with alloxan damage) and a positive control group (based on the alloxan treatment, 0.5 mmol/L of metformin was added) were provided. […] And the optical density of all groups were measured by using a microplate reader at 492 nm.
The survival rate of the INS-1 cell treated by the drug is calculated by using the following formula: Survival rate of INS cell (%)=A492 (administration group)/A492 (normal control group)×100%

diabetes mouse [7] = test: sugar tolerance of diabetes mouse (glucose 2 g/kg by gavage); format: in vivo, Kunming mice; details: 200 mg/kg; for Blood sugar value 0 h: 0 h after glucose; for Blood sugar value 0.5 h: 0.5 h after glucose; for Blood sugar value 2 h: 2 h after glucose
Description: as §1, §2

## Oc1ccc(C=Cc2cc(O)cc(O)c2)cc1 [Resveratrol, resveratrol]
Rats induced by Aβ1-42 [1]; 2nd day, trend maintained on 3rd and 4th days, compared with the model group, FIG. 7
  escape latent periods: significantly decreased
Rats induced by Aβ1-42 [1]; between groups, FIG. 9
  swimming speeds: did not have a significant difference
Rats induced by Aβ1-42 [1]; compared with the model group, FIG. 8
  time quantities of passing through of the platform: significantly increased
Rats induced by Aβ1-42 [2]; between groups, FIG. 2
  total time quantities of entering the arms: did not have a significant difference
Rats induced by Aβ1-42 [2]; compared with the model group, FIG. 1
  Y-maze spontaneous alternate reaction rate: significantly increased
Rats induced by Aβ1-42 [3]
  Discrimination index on A1 and A2 (%): 52.87 ± 5.43%
  discrimination indexes on the new objects: significantly increased
  preferential indexes on the new objects: significantly increased

## CN(C)C(=N)N=C(N)N [metformin]
Diabetes mouse [4]
  Insulin resistance (IR): 1.06^**###
Diabetes mouse [5]; 0 day
  blood sugar, 0 day: 18.07 ± 1.26^*** mmol/L
Diabetes mouse [5]; 30th day, fasted 16 h
  blood sugar, 30th day: 14.94 ± 1.03^**# mmol/L
Diabetes mouse [5]; 45th day, fasted 16 h
  blood sugar, 45th day: 10.24 ± 1.07^*## mmol/L
[6]
  Body weight gain on 30th day: 5.94 ± 1.03 g
  Body weight gain on 45th day: 7.26 ± 1.48 g
INS-1 cell
  Survival rate (%): 92.91 ± 6.69 %
Diabetes mouse [7]; 30th day
  AUC under the blood sugar curve: 33.6 ± 2.7^**#
  Blood sugar value 0 h: 14.6 ± 1.4^**
  Blood sugar value 0.5 h: 19.8 ± 1.8^**##
  Blood sugar value 2 h: 13.5 ± 1.9^**#
Diabetes mouse [7]; 45th day
  AUC under the blood sugar curve: 32.3 ± 2.1^**#
  Blood sugar value 0 h: 14.1 ± 1.5^**
  Blood sugar value 0.5 h: 18.9 ± 1.7^**#
  Blood sugar value 2 h: 13.2 ± 1.7^**#
